These results are taken from US7820623B2 (priority 2006, dated 2010).

Bridge positions count the residues as written; N and C are the ends. Square brackets hold non-standard residues; d marks the D form. Peptide text beside a SMILES is read from it. 1Nal = N[C@@H](Cc1cccc2ccccc12)C(=O)O

In one assay the target is T1, human Kv1.1 (Homo sapiens, UniProt Q09470).
T1 construct: expressed in transfected cells; host or cells: HEK293
It is filed as cell-based.

The target of another assay is T2, human Kv1.3 (CHO) (Homo sapiens, UniProt P22001).
T2 construct: expressed in transfected cells
In words: cell-based. Format: cell-based.

The next assay concerns the target T3, human Kv1.1 (HEK293) (Homo sapiens, UniProt Q09470).
T3 construct: expressed in transfected cells; host or cells: HEK293
As to the kind of experiment: cell-based.

The subject of assay [1] is thapsigargin-induced IFN-g production in human whole blood. It is filed as cell-based. The following applies: for IC50: read-out: Analogue Activity (IC50) WB/IFNg.
The subject of assay [2] is thapsigargin-induced IL-2 production in human whole blood. The settings on record: for IC50: read-out: Analogue Activity (IC50) WB/IL-2.
In the next assay the target is human Kv1.3 (Homo sapiens, UniProt P22001). As to the kind of experiment: cell-based.
Assay [3] has as its system CD40L on CD4+ T cells in human whole blood. Format: cell-based.
For assay [4], the system named is IL-2R on CD4+ T cells in human whole blood. Format: cell-based.

T1 sequence (Q09470 whole entry): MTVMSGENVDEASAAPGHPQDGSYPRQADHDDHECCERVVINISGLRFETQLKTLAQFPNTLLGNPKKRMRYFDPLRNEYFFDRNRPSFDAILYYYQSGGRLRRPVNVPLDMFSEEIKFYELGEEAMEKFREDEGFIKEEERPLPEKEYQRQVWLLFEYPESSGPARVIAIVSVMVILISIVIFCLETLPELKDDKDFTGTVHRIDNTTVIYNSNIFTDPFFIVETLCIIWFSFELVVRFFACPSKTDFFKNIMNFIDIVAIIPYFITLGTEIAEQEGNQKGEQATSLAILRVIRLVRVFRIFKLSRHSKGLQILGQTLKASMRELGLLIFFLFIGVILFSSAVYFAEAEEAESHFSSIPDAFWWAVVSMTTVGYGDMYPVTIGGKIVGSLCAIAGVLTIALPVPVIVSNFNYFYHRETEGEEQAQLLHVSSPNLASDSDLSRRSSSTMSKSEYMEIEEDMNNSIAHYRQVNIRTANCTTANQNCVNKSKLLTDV
T3 sequence (Q09470 whole entry): as above
human Kv1.3, sequence (P22001 whole entry): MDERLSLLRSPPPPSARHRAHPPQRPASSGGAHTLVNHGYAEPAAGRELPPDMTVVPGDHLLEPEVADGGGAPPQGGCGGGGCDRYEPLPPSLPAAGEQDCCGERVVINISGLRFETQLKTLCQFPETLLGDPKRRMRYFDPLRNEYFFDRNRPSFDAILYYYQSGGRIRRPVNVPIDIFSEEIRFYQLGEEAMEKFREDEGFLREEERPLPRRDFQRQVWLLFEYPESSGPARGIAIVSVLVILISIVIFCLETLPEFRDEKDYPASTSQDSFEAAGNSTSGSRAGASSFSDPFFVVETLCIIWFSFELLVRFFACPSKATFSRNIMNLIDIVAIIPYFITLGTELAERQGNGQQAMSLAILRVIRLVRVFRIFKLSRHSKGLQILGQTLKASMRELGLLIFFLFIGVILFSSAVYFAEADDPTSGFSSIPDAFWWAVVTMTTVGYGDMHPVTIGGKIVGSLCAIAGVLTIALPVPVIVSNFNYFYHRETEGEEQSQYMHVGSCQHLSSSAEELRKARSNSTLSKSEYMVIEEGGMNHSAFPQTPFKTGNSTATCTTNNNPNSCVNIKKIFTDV
T2 sequence (P22001 whole entry): as above

With “Fc-L10-OSK1[K7S,E16K,K20D]: Fc-L10-OSK1 with triple substitution K7S, E16K, K20D”, the IC50 with human Kv1.1 (read-out: hKv1.1: IC50) is 10 nM.
`CC[C@H](C)[C@@H]1NC(=O)[C@H](CCCCN)NC(=O)[C@@H](NC(=O)[C@H](CCCCN)NC(=O)[C@@H](NC(=O)[C@H](CC(N)=O)NC(=O)[C@@H](NC(=O)[C@@H](NC(=O)[C@@H](NC(=O)[C@@H](N)Cc2cccc3ccccc23)C(C)C)[C@@H](C)CC)[C@@H](C)CC)C(C)C)CSSC[C@@H]2NC(=O)[C@H](CCCCN)NC(=O)CNC(=O)[C@H](Cc3ccccc3)NC(=O)[C@H](CCCNC(=N)N)NC(=O)[C@H](CCSC)NC(=O)CNC(=O)[C@H](C)NC(=O)[C@H](CCCCN)NC(=O)[C@H](CCCCN)NC(=O)[C@@H]3CSSC[C@@H](C(=O)N[C@H](C(=O)N4CCC[C@H]4C(=O)N[C@@H](CCCCN)C(=O)O)[C@@H](C)O)NC(=O)[C@H](Cc4c[nH]cn4)NC(=O)[C@H](CSSC[C@H](NC(=O)[C@H](CCC(N)=O)NC(=O)[C@H](CCCNC(=N)N)NC(=O)[C@H](CO)NC1=O)C(=O)N[C@@H](CC(C)C)C(=O)N[C@@H](CCC(=O)O)C(=O)N1CCC[C@H]1C(=O)N3)NC(=O)[C@H](CCCCN)NC(=O)CNC(=O)[C@H](CC(N)=O)NC(=O)[C@H](CCSC)NC2=O` [G1Nal] (H-[1Nal]VIINVKCKISRQCLEPCKKAGMRFGKCMNGKCHCTPK-OH; disulfide 8-28, 14-33, 18-35): the IC50 was 0.0207 nM on human Kv1.3 (CHO), 0.0339 nM against human Kv1.1 (HEK293), 2.56 nM in assay [1] and 2.79 nM in assay [2].
On to `CC[C@H](C)[C@@H]1NC(=O)[C@H](CCCCN)NC(=O)[C@@H](NC(=O)[C@H](CCCCN)NC(=O)[C@@H](NC(=O)[C@H](CC(N)=O)NC(=O)[C@@H](NC(=O)[C@@H](NC(=O)[C@@H](NC(=O)CN)C(C)C)[C@@H](C)CC)[C@@H](C)CC)C(C)C)CSSC[C@@H]2NC(=O)[C@H](CCCCN)NC(=O)CNC(=O)[C@H](Cc3ccccc3)NC(=O)[C@H](CCCNC(=N)N)NC(=O)[C@H](CCSC)NC(=O)CNC(=O)[C@H](C)NC(=O)[C@H](CCCCN)NC(=O)[C@H](CCCCN)NC(=O)[C@@H]3CSSC[C@@H](C(=O)N[C@H](C(=O)N4CCC[C@H]4C(=O)N[C@@H](CCCCN)C(=O)O)[C@@H](C)O)NC(=O)[C@H](Cc4c[nH]cn4)NC(=O)[C@H](CSSC[C@H](NC(=O)[C@H](CCC(N)=O)NC(=O)[C@H](CCCNC(=N)N)NC(=O)[C@H](CO)NC1=O)C(=O)N[C@@H](CC(C)C)C(=O)N[C@@H](CCC(=O)O)C(=O)N1CCC[C@H]1C(=O)N3)NC(=O)[C@H](Cc1cccc3ccccc13)NC(=O)CNC(=O)[C@H](CC(N)=O)NC(=O)[C@H](CCSC)NC2=O` [K32Nal] (H-GVIINVKCKISRQCLEPCKKAGMRFGKCMNG[1Nal]CHCTPK-OH; disulfide 8-28, 14-33, 18-35), for which the IC50 at human Kv1.3 (CHO) stood at 0.0261 nM; on human Kv1.1 (HEK293), 0.00191 nM; in assay [1] it was 0.196 nM; in assay [2], 0.134 nM.
In the same order, the values of `CC[C@H](C)[C@H](NC(=O)[C@@H](NC(=O)CN)C(C)C)C(=O)N[C@H](C(=O)N[C@@H](CC(N)=O)C(=O)N[C@H](C(=O)N[C@@H](CCCCN)C(=O)N[C@H]1CSSC[C@@H]2NC(=O)[C@H](CCCCN)NC(=O)CNC(=O)[C@H](Cc3ccccc3)NC(=O)[C@H](CCCNC(=N)N)NC(=O)[C@H](CCSC)NC(=O)CNC(=O)[C@H](C)NC(=O)[C@H](CCCCN)NC(=O)[C@H](CCCCN)NC(=O)[C@@H]3CSSC[C@@H](C(=O)N[C@H](C(=O)N4CCC[C@H]4C(=O)N[C@@H](CCCCN)C(=O)O)[C@@H](C)O)NC(=O)[C@H](Cc4c[nH]cn4)NC(=O)[C@H](CSSC[C@H](NC(=O)[C@H](CCC(N)=O)NC(=O)[C@H](CCCNC(=N)N)NC(=O)[C@H](CO)NC(=O)[C@H](Cc4cccc5ccccc45)NC(=O)[C@H](CCCCN)NC1=O)C(=O)N[C@@H](CC(C)C)C(=O)N[C@@H](CCC(=O)O)C(=O)N1CCC[C@H]1C(=O)N3)NC(=O)[C@H](CCCCN)NC(=O)CNC(=O)[C@H](CC(N)=O)NC(=O)[C@H](CCSC)NC2=O)C(C)C)[C@@H](C)CC` [I10Nal] (H-GVIINVKCK[1Nal]SRQCLEPCKKAGMRFGKCMNGKCHCTPK-OH; disulfide 8-28, 14-33, 18-35) are 0.0454 nM, < 0.00152 nM, 0.257 nM and 0.184 nM.
For “Fc-L10-OSK1[K7S]: Fc-L10-OSK1 with lysine to serine at position 7”, in the assay with human Kv1.3, the “change in Kv1.3 potency compared to Fc-L10-OSK1” value is 2 fold, the “fold less potent than the synthetic OSK1 toxin peptide (Kv1.3 IC50)” value was “approximately 10 fold” and the hKv1.1/hKv1.3 selectivity ratio was 269. Moreover, the IC50 with human Kv1.3 (read-out: IC50 for block of the outward potassium current) is 0.372 ± 0.071 nM. For the same compound, the “change in selectivity compared to Fc-L10-OSK1” value in the assay with human Kv1.1 stood at 1.3 fold.
As for “Fc-L10-OSK1[E16K,K20D]: Fc-L10-OSK1 with glutamic acid to lysine at 16 and lysine to aspartic acid at 20”, in the assay with human Kv1.1, the “blocking activity against Kv1.1” value is reported as “removed the blocking activity against Kv1.1”.
As for “IbTx: BKCa channel inhibitor iberiotoxin, purchased from Bachem (QFTDVDCSVSKECWSVCKDLFGVDRGKCMGKKCRCYQ; Definition of Artificial Sequence: Synthetic peptide) [reference compound]”, the “thapsigargin-induced IFN-g production in human whole blood” value in assay [1] is reported as “no significant activity”. Moreover, in assay [3], the “thapsigargin-induced upregulation of CD40L on T cells” value is “no significant activity”. The “thapsigargin-induced upregulation of the IL-2R on T cells” value in assay [4] is recorded as “no significant activity”. The “thapsigargin-induced IL-2 production in human whole blood” value in assay [2] was “no significant activity”.
For the compound `CC[C@H](C)[C@@H]1NC(=O)[C@H](CCCCN)NC(=O)[C@@H](NC(=O)[C@H](CCCCN)NC(=O)[C@@H](NC(=O)[C@H](CC(N)=O)NC(=O)[C@@H](NC(=O)[C@@H](NC(=O)[C@@H](NC(=O)CN)C(C)C)[C@@H](C)CC)[C@@H](C)CC)C(C)C)CSSC[C@@H]2NC(=O)[C@H](CCCCN)NC(=O)CNC(=O)[C@H](Cc3ccccc3)NC(=O)[C@H](CCCNC(=N)N)NC(=O)[C@H](CCSC)NC(=O)CNC(=O)[C@H](C)NC(=O)[C@H](CCCCN)NC(=O)[C@H](CCCCN)NC(=O)[C@@H]3CSSC[C@@H](C(=O)N[C@H](C(=O)N4CCC[C@H]4C(=O)N[C@@H](CCCCN)C(=O)O)[C@@H](C)O)NC(=O)[C@H](Cc4c[nH]cn4)NC(=O)[C@H](CSSC[C@H](NC(=O)[C@H](CCC(N)=O)NC(=O)[C@H](Cc4cccc5ccccc45)NC(=O)[C@H](CO)NC1=O)C(=O)N[C@@H](CC(C)C)C(=O)N[C@@H](CCC(=O)O)C(=O)N1CCC[C@H]1C(=O)N3)NC(=O)[C@H](CCCCN)NC(=O)CNC(=O)[C@H](CC(N)=O)NC(=O)[C@H](CCSC)NC2=O` [R12Nal] (H-GVIINVKCKIS[1Nal]QCLEPCKKAGMRFGKCMNGKCHCTPK-OH; disulfide 8-28, 14-33, 18-35), the IC50 at human Kv1.3 (CHO) came to 0.0377 nM; on human Kv1.1 (HEK293), 0.025 nM; in assay [1] it was 0.387 nM; in assay [2] it was 0.46 nM.
